Measurements from the supplement of paper PMC8882468.

What was measured:
Test in all cases: CTG-3D luminescence at 96 h relative to day-0 seeding control (ratio to day 0); higher = more growth / less cytotoxicity; PDxO 3D drug screen (set 2), 96 h, CTG-3D normalised to day-0 seeding control.
[1] = tested on: HCI-023 (organoid from a triple-negative breast cancer xenograft)
[2] = tested on: HCI-001 (organoid from a triple-negative breast cancer xenograft)
[3] = tested on: HCI-010 (organoid from a breast cancer xenograft)
[4] = tested on: MDA-MB-231
[5] = tested on: HCI-017.E2 (organoid from an ER-positive breast cancer xenograft)

CC(C)n1nc(-c2ccc3oc(N)nc3c2)c2c(N)ncnc21 [sapanisertib]
CTG-3D luminescence at 96 h
Conditions | 12.5 pM | 0.00025 µM | 0.005 µM | 0.1 µM | 1 µM | 10 µM | 100 µM | 625 fM
[1], days in culture: 223 | 1.99 | 3.08 | 1.41 | 0.945 | 0.479 | 0.703 | 0.169 | 2.08
[1], days in culture: 238 | 1.38 | 1.49 | 1.44 | 0.777 | 0.723 | 0.606 | 0.2 | 1.64
[1], days in culture: 252 | 2.43 | 1.86 | 1.79 | 1.19 | 0.654 | 0.535 | 0.388 | 1.93
[2], days in culture: 365 | 2.81 | 2.2 | 2.02 | 1.47 | 0.787 | 0.663 | 0.424 | 1.97
[2], days in culture: 397 | 1.78 | 1.58 | 1.37 | 0.91 | 0.823 | 0.77 | 0.471 | 1.56
[2], days in culture: 401 | 1.48 | 1.97 | 1.53 | 0.815 | 0.544 | 0.657 | 0.396 | 1.63
[3], days in culture: 79 | 1.62 | 1.71 | 1.53 | 0.599 | 0.388 | 0.119 | 0.00579 | 1.95
[3], days in culture: 86 | 2.29 | 2.56 | 2.36 | 0.928 | 0.647 | 0.182 | 0.012 | 2.51
[3], days in culture: 102 | 1.31 | 1.4 | 1.07 | 0.401 | 0.241 | 0.0381 | 0.00408 | 1.02
[3], days in culture: 164 | 1.54 | 1.67 | 1.55 | 0.695 | 0.643 | 0.245 | 0.0314 | 1.37
[5], days in culture: 85 | 2.14 | 1.78 | 2.08 | 0.908 | 0.515 | 0.249 | 0.14 | 2.37

CTG-3D luminescence at 96 h
Conditions | 12.5 pM | 0.00025 µM | 0.005 µM | 0.1 µM | 1 µM | 10 µM | 100 µM | 625 fM
[4] | 5.39 | 5.2 | 4.98 | – | 2.67 | 1.74 | 0.758 | 5.28
[5] | 2.17 | 2.44 | 1.79 | 0.877 | 0.558 | 0.399 | 0.125 | 2.58

CO[C@H]1C[C@@H]2CC[C@@H](C)[C@@](O)(O2)C(=O)C(=O)N2CCCC[C@H]2C(=O)O[C@H]([C@H](C)C[C@@H]2CC[C@@H](O)[C@H](OC)C2)CC(=O)[C@H](C)/C=C(\C)[C@@H](O)[C@@H](OC)C(=O)[C@H](C)C[C@H](C)/C=C/C=C/C=C/1C [rapamycin]
CTG-3D luminescence at 96 h
Conditions | 12.5 pM | 0.00025 µM | 0.005 µM | 0.1 µM | 1 µM | 10 µM | 100 µM | 625 fM
[1], days in culture: 223 | 1.62 | 1.63 | 1.09 | 1.99 | 0.95 | 1.49 | 0.0136 | 2.02
[1], days in culture: 238 | 1.36 | 1.16 | 0.919 | 1.42 | 1.46 | 1.5 | 0.0105 | 1.26
[1], days in culture: 252 | 1.76 | 1.4 | 1.31 | 1.72 | 1.32 | 1.8 | 0.00661 | 1.58
[2], days in culture: 365 | 2.01 | 1.51 | 1.8 | 1.8 | 1.28 | 1.67 | 0.0179 | 1.4
[2], days in culture: 397 | 1.46 | 1.71 | 1.53 | 1.84 | 1.22 | 1.87 | 0.017 | 1.1
[2], days in culture: 401 | 1.07 | 1.45 | 1.1 | 1.26 | 0.98 | 1.23 | 0.00642 | 0.961
[3], days in culture: 79 | 1.09 | 1.02 | 1.11 | 1.13 | 0.996 | 0.98 | 0.00731 | 1.13
[3], days in culture: 86 | 1.91 | 1.75 | 1.61 | 1.37 | 1.45 | 1.46 | 0.0226 | 2.35
[3], days in culture: 102 | 0.91 | 0.799 | 0.831 | 0.806 | 0.875 | 0.636 | 0.00488 | 0.865
[3], days in culture: 164 | 1.39 | 1.27 | 1.02 | 0.996 | 1.17 | 0.924 | 0.0097 | 1.26
[5], days in culture: 85 | 2.2 | 1.67 | 1.47 | 1.51 | 1.34 | 1.31 | 0.0123 | 2.57

CTG-3D luminescence at 96 h
Conditions | 12.5 pM | 0.00025 µM | 0.005 µM | 0.1 µM | 1 µM | 10 µM | 100 µM | 625 fM
[4] | 4.67 | 4.8 | 4.88 | 4.66 | 4.92 | 4.59 | 0.0454 | –
[5] | 1.41 | 1.88 | 1.61 | 1.58 | 1.56 | 1.63 | 0.0217 | 1.583
